Reference: BindingDB's records for doi:10.1021/jm980511k (Research Triangle Institute, 1999)

Columns and labels:
[1] = Binding affinity determined on Opioid receptor delta 1 in Guinea pig brain membranes using radioligand [3H]DADLE
[2] = Inhibition of [35S]GTP-gamma-S, binding from Opioid receptor delta 1 in Guinea pig Caudate stimulated by SNC80

CC(C)[C@@H](CN1CC[C@@](C)(c2cccc(O)c2)[C@@H](C)C1)NC(=O)CCc1ccc(O)cc1 [3-(4-Hydroxy-phenyl)-N-{1-[4-(3-hydroxy-phenyl)-3,4-dimethyl-piperidin-1-ylmethyl]-2-methyl-propyl}-propionamide]
Ki [1]: > 5700 nM

C[C@@H]1CN(C/C=C/c2ccccc2)CC[C@]1(C)c1cccc(O)c1 [3-[(3S,4S)-3,4-Dimethyl-1-((E)-3-phenyl-allyl)-piperidin-4-yl]-phenol]
Ki [2]: 1.5 nM | Ki [1]: 322 nM
